Results on one compound are retold here after patent publication EP0316592A2, “3'-Fluoro-2',3'-dideoxyuridine, and its therapeutic application” (Stichting REGA V.Z.W., priority 1987, dated 1989).

One series concerns HIV. The series is described as follows: Inhibition of HIV-induced cytopathogenicity in MT4 cells. The format is cell-based. To be noted: 50% reduction in the cytopathic effect of HIV for MT4 cells, 5 days; read-out: HIV-induced cyto-pathogenicity ED50. As for the experimental part:
HTLV-IIIB (designated HIV) was derived from a pool of American patients with AIDS, and obtained from the supernatant of HIV-infected H9 cell cultures (see M. Popovic et al, Science 224, 497-500 (1984)).
FddUrd, the unsubstituted analogue and other 3′-fluoro- and 3′-azido-substituted analogues were evaluated for their inhibitory effects on HIV-induced cytopathogenicity in MT4 cells (Table 1, fig. 2).

The test system of a further series is MT4 cells. The series is described as follows: Cytotoxicity for non-infected MT4 cells (viable cell count). Conditions: 50% reduction of viable cells in non-infected MT4 cell cultures, 5 days. The method, then:
Then 100 µl of the infected cell suspension was added to 100 µl of an appropriate dilution of test compound in 200 µ1 wells of a Flat Bottom Microtest III Plate (Falcon, Becton Dickinson, Oxnard, CA, USA) (i.e. 40 CCID₅₀ HIV/200 µ1 well/5 x 10⁴ cells), and further incubated at 37°C in a CO₂-controlled humidified atmosphere.

Another series concerns C3H cells. The series is described as follows: Cytotoxicity for C3H cells (alteration of normal cell morphology). The class given is cell-based, mouse. To be noted: alteration of normal cell morphology, C3H cells.
For a further series, the system named is MOLT/4F CELL DNA. The series can be described thus: Incorporation of radiolabelled precursors into Molt/4F cell DNA. Conditions: Homo sapiens, Molt/4F cell DNA, 20-24 hours. The format is cell-based, human. The method, then: The impact of ddUrd and the 3′-fluoro- and 3′-azido-substituted pyrimidine 2′,3′-dideoxynucleoside analogues on cellular DNA biosynthesis was evaluated by monitoring the effect of these compounds on the incorporation of radio- labelled (1′,2′-³H)dUrd (specific radioactivity 27 Ci/mmol), (methyl-³H)dThd (specific radioactivity […]) and (5-³H)dCyd (specific radioactivity 20 Ci/mmol) into DNA of Molt/4F cells.
The incorporation of radiolabelled precursors into Molt/4F cellular DNA was measured in microtest III plates (96 wells) (Flacon) as previously described (J. Balzarini et al, Mol. Pharmacol. 23, 175-181 (1983)). Shortly, to each well of the microplate were added 10⁵ Molt/4F cells and 0.25 µCi of (1′,2′-³H)dUrd, (methyl³H)dThd or (5-³H)dCyd. The cells were allowed to proliferate for 20-24 hours at 37°C in a humidified CO₂-controlled atmosphere. At the end of this incubation period, the contents of the wells (200 µ1) were brought onto 25-mm glass-fibre filters (type A/E, Gelman Instrument Company, Ann Arbor, Mich., USA) and washed twice with cold phosphate-buffered saline, twice with cold 10% trichloroacetic acid (TCA), twice with cold 5% TCA, once with ethanol and once with ether. The filters were then assayed for radioactivity in a toluene-based scintillant.

In another series the test system is Molt/4F cells. The series is described as follows: Tritium release from (5-3H)dUrd or (5-3H)dCyd in intact Molt/4F cells. The class given is cell-based. Conditions: Homo sapiens, read-out: ID50 tritium release from (5-3H)dUrd. The method, then: Briefly, 10⁷ Molt/4F cells/ml were preincubated with an appropriate amount of test compound for 15 min at 37°C. After this incubation period, radiolabelled (5-³H)dUrd or (5-³H)dCyd (100 µCi/ml; 0.1 µM) were added, and at various times (0, 15, 30, 45, 60 min), 100 µl of the reaction mixture was withdrawn, and mixed with 500 µl of a cold suspension of carbon black (100 mg/ml) in 5% TCA. After centrifugation at 1000 g for 10 min, the supernatants were analysed for radioactivity.

In the next series the target is T1, Molt/4F dThd kinase (Homo sapiens, UniProt P04183).
T1 construct: endogenous in cells; host or cells: Molt/4F cells (sonicated extract, 30-70% ammonium sulfate fraction, dialyzed)
T1 sequence (P04183 1-234): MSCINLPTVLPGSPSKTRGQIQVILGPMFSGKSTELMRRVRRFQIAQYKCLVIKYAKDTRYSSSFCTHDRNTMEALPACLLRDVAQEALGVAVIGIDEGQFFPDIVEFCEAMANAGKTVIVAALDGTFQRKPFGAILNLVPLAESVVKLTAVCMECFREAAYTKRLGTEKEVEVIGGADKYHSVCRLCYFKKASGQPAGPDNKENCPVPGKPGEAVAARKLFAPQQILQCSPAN
The series is described as follows: Inhibition of dThd kinase (Lineweaver-Burk). The format is biochemical. As for the experimental part:
ddUrd and the 3′-fluoro- and 3′-azido-substituted pyrimidine 2′,3′-dideoxynucleoside analogues were evaluated for their inhibitory effect against dThd and dCyd kinase.
dThd kinase and dCyd kinase were prepared from exponen tially growing Molt/4F cells, which were first washed (2x) with phosphate-buffered saline at 4° and then homogenized by sonication. The suspensions were clarified by centrifugation at 25,000-27,000 x g for 30 min. The 30-70% (NH₄)₂SO₄ precipitate of the supernatant was resuspended in buffer containing 10 uM potassium phosphate, pH 7.5, 10 mM β-mercaptoethanol and 0.1 M KCl, dialyzed against the same buffer, and used for the dThd kinase and the dCyd kinase assays. In these experiments, (2-¹⁴C)dThd and (U-¹⁴C)dCyd served as the radiolabelled substrates. The apparent Km and Ki values were derived from Lineweaver-Burk plots, using a linear regression analysis program.

Series [1] has as its target T2, bacterial thymidine phosphorylase (Escherichia coli, UniProt P07650).
T2 construct: purchased Sigma Chemical Co., St. Louis, MO
The series can be described thus: Phosphorolytic cleavage by dThd phosphorylase. The class given is biochemical. To be noted: purified bacterial dThd phosphorylase. As for the experimental part: Phosphorolytic cleavage of the test compounds was assessed using purified bacterial dThd phosphorylase (Sigma Chemical Co., St. Louis, MO) with the aid of a Beckman spectrophotometer UV/Vis 5200; the absorbance change during the enzyme reaction was continuously monitored at 25°C at the wavelength where the difference of absorption between the nucleoside and its free base was maximal. The reaction mixtures for all the assays consisted of enzyme and non-satura ting concentrations of nucleoside in 0.1 M sodium phosphate buffer, pH 7.0. The initial velocity of phosphorolysis was expressed as nmol/min/enzyme unit.

Read-outs that look alike come from different tables or passages of the source.

As a reminder, the Ki is a measure of affinity in units of concentration, obtained from inhibition or displacement. A low value points to higher affinity.

T2 sequence (P07650 whole entry): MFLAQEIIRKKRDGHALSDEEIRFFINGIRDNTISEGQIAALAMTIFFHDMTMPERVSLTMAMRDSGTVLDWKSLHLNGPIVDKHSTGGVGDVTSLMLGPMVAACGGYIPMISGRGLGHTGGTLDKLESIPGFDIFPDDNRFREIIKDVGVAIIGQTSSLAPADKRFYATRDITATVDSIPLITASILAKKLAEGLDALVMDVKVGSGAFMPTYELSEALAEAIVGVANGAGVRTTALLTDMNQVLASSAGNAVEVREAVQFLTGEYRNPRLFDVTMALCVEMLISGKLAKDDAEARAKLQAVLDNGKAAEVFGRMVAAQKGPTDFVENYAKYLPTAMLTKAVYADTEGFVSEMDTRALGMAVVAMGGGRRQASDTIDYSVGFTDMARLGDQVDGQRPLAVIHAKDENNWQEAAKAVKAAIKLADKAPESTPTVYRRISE

Consider `CCc1cn([C@H]2CC[C@@H](CO)O2)c(=O)[nH]c1=O` [ddEtUrd, 2′,3′-Dideoxy-5-ethyluridine], for which the EC50 in the series with HIV is greater than 625 µM. Moreover, the “HIV-induced cyto-pathogenicity CD50” value with MT4 cells is greater than 625 µM. The “MSV-induced cyto-pathogenicity CD50” value in the series on C3H cells is greater than 400 µM. Moreover, the IC50 with MOLT/4F CELL DNA (read-out: ID50 (1',2'-3H)dUrd incorporation) is greater than 1000 µM; in the series with MOLT/4F CELL DNA (read-out: ID50 (5-3H)dCyd incorporation) it was greater than 1000 µM; with MOLT/4F CELL DNA (read-out: ID50 (methyl-3H)dThd incorporation), greater than 1000 µM; in the series on Molt/4F cells it was greater than 250 µM. For the same compound, the “inhibitory activity against dThd kinase (in words)” value at Molt/4F dThd kinase (at a concentration as high as 750 µM or 1000 µM) is listed as “no inhibitory activity”. Also, the inhibition constant Ki on Molt/4F dThd kinase (dThd kinase, substrate (2-14C)dThd) was greater than 750 µM. The same compound yielded a Ki/Km on Molt/4F dThd kinase (dThd kinase, Km 2.5 to 6.6 µM) greater than 200. In series [1], the “susceptibility to phosphorolysis by dThd phosphorylase (in words)” value is on record as “no phosphorolytic cleavage whatsoever”.
